# US20260159512A1, “BCAT2 INHIBITORS” (AGIOS PHARMACEUTICALS, INC., priority 2021, published 2026)
# Target: T1, BCAT2 (Homo sapiens, UniProt O15382)
# T1 sequence (O15382 28-392): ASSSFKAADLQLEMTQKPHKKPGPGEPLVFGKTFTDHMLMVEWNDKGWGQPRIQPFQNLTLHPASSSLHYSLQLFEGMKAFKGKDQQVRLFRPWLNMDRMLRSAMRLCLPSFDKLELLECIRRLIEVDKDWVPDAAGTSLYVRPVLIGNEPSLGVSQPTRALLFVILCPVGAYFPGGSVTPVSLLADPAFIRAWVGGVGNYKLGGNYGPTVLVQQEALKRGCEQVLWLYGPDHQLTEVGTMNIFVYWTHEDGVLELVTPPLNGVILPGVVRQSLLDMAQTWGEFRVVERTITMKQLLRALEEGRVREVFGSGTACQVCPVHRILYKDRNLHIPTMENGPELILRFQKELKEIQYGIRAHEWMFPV
# Assay: BCAT2 in vitro enzyme inhibition assay (resazurin/diaphorase-coupled fluorescence)
# Type: biochemical
# Conditions: average where tested multiple times
# Description: BCAT2 In Vitro Enzyme Inhibition Assay
# 1.67× hBCAT2 Enzyme Mix: 0.33 μg/mL hBCAT2, 1× Buffer
# 2.5× Substrate Mix: 460 μM L-leucine, 420 μM α-KetoGlutarate, 10 U/mL glutamate dehydrogenase, 10 mM NAD, 30 μg/mL diaphorase, 20 μm Resazurin
# BCAT2 enzyme stock solution was diluted to prepare a 1.67× hBCAT2 Enzyme Mix. 1 μL of test compound was first added to the reaction wells followed by 30 μL of 1.67× hBCAT2 Enzyme Mix and incubated at room temperature (25° C.) for one hour. Meanwhile the Substrate Mix was prepared. The reaction was initiated by the addition of 20 μL of the 2.5× Substrate Mix, bringing the final reaction mix of all components to 1×. Reactions were quenched after one hour by the addition of 25 μL of 6% SDS and reaction progress was measured via fluorescence read (Ex 540/Em 590).
# Test Compound Preparation:
# Test compounds were prepared at 50× final concentration in DMSO, 1 to 3 dilutions were made for 10 points. The compounds were added to the assay as a 1 to 50 dilution (1 μL in 50 μL) to yield a top assay final concentration of 100 μM, decreasing 3-fold for 10 points. Each compound dilution series test also included an assay max (1 μL DMSO Added in lieu of compound, Full Reaction Components Included) and Min (1 μL DMSO Added in lieu of compound, 30 μl of 1.67× hBCAT2 Enzyme Mix replated by 30 μL of 1× Buffer). All tests were performed in technical duplicate.
# Where a compound was tested multiple times, the average value of the tests is reported.
row,SMILES,IC50 [µM]
1,"CO[C@@H]1C[C@@H](NC(=O)c2ncc(Cl)s2)C[C@@H](n2c(CC(C)C)nc3cnc(-c4nc(C)co4)cc32)C1 [Example 410, 5-chloro-N-((1S,3R,5R)-3-(2-isobutyl-6-(4-methyloxazol-2-yl)-1H-imidazo[4,5-c]pyridin-1-yl)-5-methoxycyclohexyl)thiazole-2-carboxamide]",> 1
2,"COC(=O)O[C@@H]1[C@@H](NC(=O)c2ncc(Cl)s2)CCC[C@H]1n1c(-c2ccccc2F)nc2cnc(-c3nc[nH]n3)cc21 [Example 447, (1R,2S,6R)-2-(5-chlorothiazole-2-carboxamido)-6-(2-(2-fluorophenyl)-6-(1H-1,2,4-triazol-3-yl)-1H-imidazo[4,5-c]pyridin-1-yl)cyclohexyl methyl carbonate]",0.1 to 0.5
3,"CS(=O)(=O)O[C@@H]1[C@@H](NC(=O)c2ncc(Cl)s2)CCC[C@H]1n1c(-c2ccccc2F)nc2cnc(-c3nc[nH]n3)cc21 [Example 448, (1R,2S,6R)-2-(5-chlorothiazole-2-carboxamido)-6-(2-(2-fluorophenyl)-6-(1H-1,2,4-triazol-3-yl)-1H-imidazo[4,5-c]pyridin-1-yl)cyclohexyl methanesulfonate]",0.5 to 1
4,"[N-]=[N+]=N[C@H]1[C@@H](NC(=O)c2ncc(Cl)s2)CCC[C@H]1n1c(-c2ccccc2F)nc2cnc(-c3nc[nH]n3)cc21 [Example 450, N-((1S,2S,3R)-2-azido-3-(2-(2-fluorophenyl)-6-(1H-1,2,4-triazol-3-yl)-1H-imidazo[4,5-c]pyridin-1-yl)cyclohexyl)-5-chlorothiazole-2-carboxamide]",> 1
5,"N#C[C@H]1[C@@H](NC(=O)c2ncc(Cl)s2)CCC[C@H]1n1c(-c2ccccc2F)nc2cnc(-c3nc[nH]n3)cc21 [Example 452, 5-chloro-N-((1S,2S,3R)-2-cyano-3-(2-(2-fluorophenyl)-6-(1H-1,2,4-triazol-3-yl)-1H-imidazo[4,5-c]pyridin-1-yl)cyclohexyl)thiazole-2-carboxamide]",> 1
6,"O=C(N[C@H]1C[C@@H](n2c(-c3ccccc3F)nc3cnc(-c4nc[nH]n4)cc32)CS(=O)(=O)C1)c1ccc(Cl)s1 [Example 457, 5-chloro-N-((3S,5R)-5-(2-(2-fluorophenyl)-6-(1H-1,2,4-triazol-3-yl)-1H-imidazo[4,5-c]pyridin-1-yl)-1,1-dioxidotetrahydro-2H-thiopyran-3-yl)thiophene-2-carboxamide]",0.1 to 0.5
7,"CS(=O)(=O)N1C[C@@H](NC(=O)c2ncc(Cl)s2)C[C@@H](n2c(-c3ccccc3F)nc3cnc(-c4nc[nH]n4)cc32)C1 [Example 461, 5-chloro-N-((3S,5R)-5-(2-(2-fluorophenyl)-6-(1H-1,2,4-triazol-3-yl)-1H-imidazo[4,5-c]pyridin-1-yl)-1-(methylsulfonyl)piperidin-3-yl)thiazole-2-carboxamide]",≤ 0.1

# More lines, now with the values ahead:
row,IC50 [µM],SMILES
1,≤ 0.1,"O=C(N[C@H]1CCC[C@@H](n2c(-c3ccccc3OCCO)nc3cnc(-c4nc[nH]n4)cc32)C1)c1ncc(Cl)s1 [Example 382, 5-chloro-N-((1S,3R)-3-(2-(2-(2-hydroxyethoxy)phenyl)-6-(1H-1,2,4-triazol-3-yl)-1H-imidazo[4,5-c]pyridin-1-yl)cyclohexyl)thiazole-2-carboxamide]"
2,≤ 0.1,"CC(C)Cc1nc2cnc(-c3nc[nH]n3)cc2n1[C@@H]1CCC[C@H](NC(=O)c2ncc(Cl)s2)[C@@H]1O [Example 408, 5-chloro-N-((1S,2S,3R)-2-hydroxy-3-(2-isobutyl-6-(1H-1,2,4-triazol-3-yl)-1H-imidazo[4,5-c]pyridin-1-yl)cyclohexyl)thiazole-2-carboxamide]"
3,≤ 0.1,"[N-]=[N+]=N[C@@H]1[C@@H](NC(=O)c2ncc(Cl)s2)CCC[C@H]1n1c(-c2ccccc2F)nc2cnc(-c3nc[nH]n3)cc21 [Example 449, N-((1S,2R,3R)-2-azido-3-(2-(2-fluorophenyl)-6-(1H-1,2,4-triazol-3-yl)-1H-imidazo[4,5-c]pyridin-1-yl)cyclohexyl)-5-chlorothiazole-2-carboxamide]"
